Measured values from patent publication US20030108512A1, “Modified prostaglandin compounds and analogs thereof, compositions containing the same useful for the treatment of cancer” (priority 2001, published 2003).

Key:
[1] = test system: LOX cells; assay: Apoptosis assay (Vybrant Apoptosis Assay Kit #4, YO-PRO); assay type: cell-based, human; details: overnight, n=4, FIGS. 9-11
Experimental: An apoptosis assay marketed as Vybrant Apoptosis Assay Kit #4 from Molecular Probes, Inc., was obtained for the test.
The LOX cell cultures were incubated overnight.
The apoptosis assay was performed four times (n=4) for each test compound.

[2] = test system: human amelanotic melanoma cell line (LOX); assay: Collagen degradation inhibition assay (fluorescent-labelled Type I collagen matrix seeded with tumor cells); assay type: cell-based; details: n=4, FIGS. 2-4; for IC50: LOX cells on labelled Type I collagen film; for dosage at which collagen degradation activity by LOX cells was inhibited: dosages tested about 10^−6 to 10^3 μM
Description: The assay for screening antimetastatic agents is comprised of a collagenous matrix comprising collagenous components including but not limited to Type I or Type VI collagen or denatured collagen such as gelatin to form a scaffold-matrix. The scaffold matrix is subsequently coated with blood-borne components such as fibronectin, laminin, and fibrin for inducing adherence of the tumor cells and thereafter, labeled with quench fluorescent dyes. During performance of the assay, tumor cells that are present, adhere, ingest and invade the labeled scaffold-matrix resulting in the release of highly fluorescent peptides. Generally, tumor cells include a specific cell structure typically comprised of tentacles or arms (i.e. invadopodia) which secrete specific digestive enzymes including seprase, dipeptidyl peptidase IV (DPPIV), membrane Type-1 matrix metalloproteinases, and the like, to breakdown the collagen matrix. The fluorescence becomes visible only in the presence of these specific digestive enzymes produced by the tumor cells and increases in proportion to the activity of the digestive enzymes, thus providing a qualitative/quantitative measure of the invasiveness of the tumor cells. Other labeling methods including, but not limited to the use of, biotin, color dyes, and radioactive probes may also be used. As described herein, the assay utilizes a thin coating of collagen labeled with a fluorescent dye probe to form a scaffold collagen matrix, and tumor cells. The scaffold collagen matrix simulates the extracellular environment that is attacked by tumor cells during metastasis. The tumor cells attack the matrix by secreting proteolytic enzymes that break the collagen into peptide fragments. The peptide fragments release the fluorescent dye probe, and fluorescent light is emitted. The observed light intensity of the fluorescence correlates proportionally with the collagen degradation activity of the tumor cells. The tumor cells used in the test samples were generated from a human amelanotic melanoma cell line (LOX). A solution of a Type I collagen was prepared at a concentration of about 3.56 mg/ml. The collagen solution was used to form a coating of a monolayer of Type I collagen on a 96-well microtiter plate. […] Fluorescence readings were made using a microtiter plate fluorescence reader set at 485 nm/538 nm (Ex/Em). […] The collagen degradation activity of the LOX cells was detected through the cleavage and release of fluorescent collagen peptides from the labeled collagen matrix film as described above. A positive fluorescence signal, ΔF indicates the presence of collagen degradation activity. […]

Structure (SMILES) | dosages giving a marked increase in the incidence of apoptosis [1] | IC50 ([2]; Homo sapiens) | dosage at which collagen degradation activity by LOX cells was inhibited [2] | dosages causing LOX cells to enter apoptosis [1] | IC50 [2]
CCCCCC(O)CC[C@@H]1C2Cc3cccc(OCC(=O)O)c3CC2C[C@H]1O (stereo partly drawn) [Compound V, reference compound] | over 100 μM | 10 nM | about 2.5×10^−3 μM | – | –
CNC(=O)[C@H](Cc1ccccc1)NC(=O)[C@H](CC(C)C)[C@H](CSc1cccs1)C(=O)NO [MMP inhibitor, BATIMASTAT®, reference compound] | – | – | over 10^−4 μM | over 2 μM | 0.2 nM
